The source of these data is patent US6350778B1, “Cinnamoylaminoalkyl-substituted benzenesulfonamide derivatives, processes for their preparation, their use, and pharmaceutical preparations comprising them” (Aventis Pharma Deutschland GmbH, priority 1999, dated 2002).

Series [1] concerns chloroform-induced ventricular fibrillation in the mouse. As to the kind of experiment: Chloroform-induced ventricular fibrillation in the mouse (action in the case of vagal dysfunction). As to conditions: for Fibrillation ratio (in %): 3 mg/kg i.p., chloroform anesthesia 30 min later, untreated control 100%. It is filed as in vivo. An excerpt: Chloroform-induced ventricular fibrillation in the mouse (action in the case of vagal dysfunction) A hypofunction of the vagal nervous system leads to a hyperfunction of the sympathetic nervous system. Damages to health which result from an imbalance of the autonomic nervous system if the dysfunction relates to the heart, include weakening of the myocardial contractile force and fatal cardiac arrhythmias such as ventricular fibrillation. The action of the test substances was investigated in the model of chloroform-induced ventricular fibrillation in the mouse (see J. W. Lawson, “Antiarrhythmic activity of some isoquinoline derivatives determined by a rapid screening procedure in the mouse,” J. Pharmacol. Exp. Ther. 160 (1968) 22). […] As soon as respiratory arrest had occurred under deep anesthesia (toxic anesthesia stage), the thorax of the animal was opened with a pair of scissors and the heartbeat was visually inspected. It can be detected at a glance here whether the heart is beating, fibrillating, or has stopped. The respiratory arrest induced by chloroform leads, via absolute anoxia (oxygen deficiency) in combination with a direct stimulating action of chloroform on the sympathetic nervous system, to a strong stimulation of the sympathetic nervous system which in turn leads, in combination with the energy deficiency produced in the heart by oxygen deficiency, to the fatal arrhythmia, ventricular fibrillation. […] The percentage proportion of the mice having ventricular fibrillation in the individual test groups (with n animals) is indicated as the fibrillation ratio. The following fibrillation ratios were determined. […] The experiment is carried out here as described above. […] After a further 15 min, the animals were anesthetized with chloroform and the fibrillation ratio was determined.

For series [2], the system named is papillary muscle of the guinea pig. As to the kind of experiment: Action potential duration (APD90) in the papillary muscle of the guinea pig, shortened by rilmakalim (HOE 234). It is filed as cell-based. As to conditions: starting values 185-193 ms; for APD90 + HOE 234, 30 min, then + test substance, 60 min: test substance 2 μmol/l added after 30 min rilmakalim (HOE 234) 1 μg/ml, recorded after a further 60 min. An excerpt: Action potential duration in the papillary muscle of the guinea pig
ATP deficiency states, such as are observed during ischemia in the cardiac muscle cell, lead to a shortening of the action potential duration. They are regarded as one of the causes of so-called reentry arrhythmias, which can cause sudden cardiac death. The opening of ATP-sensitive potassium channels by the lowering of the ATP level is regarded as causing this (ATP=adenosine triphosphate). For the measurement of the action potential in the papillary muscle of the guinea pig a standard microelectrode technique was employed.
Guinea pigs of both sexes were killed by a blow to the head, the hearts were removed, and the papillary muscles were separated out and suspended in an organ bath. The organ bath was irrigated with Ringer's solution (136 mmol/l of NaCl, 3.3 mmol/l of KCl, 2.5 mmol/l of CaCl2, 1.2 mmol/l of KH2PO4, 1.1 mmol/l of MgSO4, 5.0 mmol/l of glucose, and 10.0 mmol/l of N-(2-hydroxyethyl)piperazine-N′-(2-ethanesulfonic acid) (HEPES), pH adjusted to 7.4 with NaOH) and aerated with 100% oxygen at a temperature of 37° C. The muscle was stimulated by means of an electrode using square-wave impulses of 1 V and 1 ms duration and a frequency of 1 Hz. The action potential was derived and recorded by means of a glass microelectrode inserted intracellularly, which was filled with 3 mol/l of KCl solution. The substance to be tested was added to the Ringer's solution in a concentration of 2 μmol/l. The action potential was amplified using an amplifier from Hugo Sachs (March-Hugstetten, Germany) and stored and analyzed by means of a computer. The duration of the action potential was determined at a degree of repolarization of 90% (APD90). The action potential shortening was produced by addition of a solution of the potassium channel opener Rilmakalim (HOE 234) (W. Linz et al., Arzneimittelforschung/Drug Research, 42 (II) (1992) 1180-1185) (rilmakalim concentration 1 μg/ml). 30 minutes after the administration of rilmakalim, the action potential duration was recorded. The test substance was then added and the action potential duration, which was prolonged again, was recorded after a further 60 minutes. The test substances were added to the bath solution as stock solutions in propanediol.
The following APD90 values (in milliseconds) were recorded.

Setting [3] is: atropine 1 mg/kg i.v., chloroform 15 min after administration, n = 10.
Setting [4] is: Example 8 10 mg/kg i.p., chloroform 30 min after administration, n = 20.

“And” between values parts separate entries of the source, which are not always exact repeats. Identical values can stand only once.

Regarding `CN1[C@@H]2CC[C@H]1C[C@@H](OC(=O)C(CO)c1ccccc1)C2` (some centres unmarked) [Atropine, atropine, reference compound], in series [1] (setting [3]), the Fibrillation ratio was 100%, the “Number of animals with fibrillation” value was 10 and the “Number of animals with regular heart action” value is reported as 0.
`CNC(=S)NS(=O)(=O)c1cc(CCNC(=O)/C=C/c2ccc(OC)cc2OC)ccc1OC` [Example 1, 1-(5-(2-(2,4-Dimethoxycinnamoylamino)ethyl)-2-methoxyphenysulfonyl)-3-methylthiourea]: in series [2], the “APD90 + HOE 234, 30 min, then + test substance, 60 min” value (shortened to “APD90 + HOE 234, 30 min … 60 min”) was found to be 177 milliseconds. The “Fibrillation ratio (in %)” value in series [1] (n = 10) was 60%.
What is called melting point is the temperature of the solid-liquid transition. In the case of `CNC(=O)NS(=O)(=O)c1cc(CCNC(=O)/C=C/c2ccc(OC)cc2OC)ccc1OC` [Example 2, 1-(5-(2-(2 ,4-Dimethoxycinnamoylamino)ethyl)-2-methoxyphenylsulfonyl)-3-methylurea], the melting point is 210 °C.
Take `CCNC(=S)NS(=O)(=O)c1cc(CCNC(=O)/C=C/c2ccc(OC)cc2OC)ccc1OC` [Example 3, 1-(5-(2-(2,4-Dimethoxycinnamoylamino)ethyl)-2-methoxyphenylsulfonyl)-3-ethylthiourea]: the melting point was determined as 90 °C.
On the same count and under the same terms, the value for `CCNC(=O)NS(=O)(=O)c1cc(CCNC(=O)/C=C/c2ccc(OC)cc2OC)ccc1OC` [Example 4, 1-(5-(2-(2,4-Dimethoxycinnamoylamino)ethyl)-2-methoxyphenylsulfonyl)-3-ethylurea] was 96 °C.
On to `CNC(=S)NS(=O)(=O)c1cc(CCNC(=O)/C=C/c2ccc(C)cc2C)ccc1OC` [Example 5, 1-(5-(2-(2,4-Dimethylcinnamoylamino)ethyl)-2-methoxyphenylsulfonyl)-3-methylthiourea], for which the “Fibrillation ratio (in %)” value in series [1] (n = 10) is given as 70%.
`CNC(=O)NS(=O)(=O)c1cc(CCNC(=O)/C=C/c2ccc(C)cc2C)ccc1OC` [Example 6, 1-(5-(2-(2,4-Dimethylcinnamoylamino)ethyl)-2-methoxyphenylsulfonyl)-3-methylurea] came in with a melting point of 227 to 229 °C.
Consider `CNC(=S)NS(=O)(=O)c1cc(CCNC(=O)/C=C/c2ccc(OC)cc2OC)ccc1OCCOC` [Example 7, 1-(5-(2-(2,4-Dimethoxycinnamoylamino)ethyl)-2-(2-methoxyethoxy)phenylsulfonyl)-3-methylthiourea], for which the “APD90 + HOE 234, 30 min … 60 min” value in series [2] is 175 milliseconds.
In the case of `CNC(=O)NS(=O)(=O)c1cc(CCNC(=O)/C=C/c2ccc(OC)cc2OC)ccc1OCCOC` [Example 8, 1-(5-(2-(2,4-Dimethoxycinnamoylamino)ethyl)-2-(2-methoxyethoxy)phenysulfonyl)-3-methylurea], the “APD90 + HOE 234, 30 min … 60 min” value in series [2] was determined as 92 milliseconds. Moreover, in series [1] (n = 10), the “Fibrillation ratio (in %)” value is reported as 60%. Moreover, in series [1] (setting [4]), the “Number of animals with fibrillation” value is 9 and the “Number of animals with regular heart action” value amounted to 11. For the same compound, the Fibrillation ratio in series [1] (Example 8 10 mg/kg i.p., chloroform 30 min after administration, n = 20, p < 0.0001 vs atropine, p = 0.024 vs combination) is listed as 45% ^1), 2).
As to `CCNC(=S)NS(=O)(=O)c1cc(CCNC(=O)/C=C/c2ccc(OC)cc2OC)ccc1OCCOC` [Example 9, 1-(5-(2-(2,4-Dimethoxycinnamoylamino)ethyl)-2-(2-methoxyethoxy)phenylsulfonyl)-3-ethylthiourea], the “Fibrillation ratio (in %)” value in series [1] (n = 10) was found to be 63%.
As to `CNC(=S)NS(=O)(=O)c1cc(CCNC(=O)/C=C/c2ccccc2)ccc1OC` [Example 12, 1-(5-(2-(Cinnamoylamino)ethyl)-2-methoxyphenylsulfonyl)-3-methylthiourea], the “Fibrillation ratio (in %)” value in series [1] (n = 10) worked out at 63%.
Take `CNC(=S)NS(=O)(=O)c1cc(CCNC(=O)/C=C/c2ccccc2)ccc1OCCOC` [Example 17, 1-(5-(2-(Cinnamoylamino)ethyl)-2-(2-methoxyethoxy)phenylsulfonyl)-3-methylthiourea]: the melting point worked out at 150 °C.
`CNC(=O)NS(=O)(=O)c1cc(CCNC(=O)/C=C/c2ccccc2)ccc1OCCOC` [Example 19, 1-(5-(2-(Cinnamoylamino)ethyl)-2-(2-methoxyethoxy)phenylsulfonyl)-3-methylurea] had a melting point of 65 °C.
`CNC(=S)NS(=O)(=O)c1cc(CCNC(=O)/C=C/c2cc(Cl)ccc2OC)ccc1OC` [Example 21, 1-(5-(2-(5-Chloro-2-methoxycinnamoylamino)ethyl)-2-methoxyphenylsulfonyl)-3-methylthiourea] had a melting point of 188 to 190 °C.
Take `C=CCOc1ccc(CCNC(=O)/C=C/c2ccc(OC)cc2OC)cc1S(=O)(=O)NC(=S)NC` [Example 23, 1-(2-Allyloxy-5-(2-(2,4-dimethoxycinnamoylamino)ethyl)phenylsulfonyl)-3-methylthiourea]: the melting point fell in the range of 171 to 175 °C.
Take `CNC(=S)NS(=O)(=O)c1cc(CCNC(=O)/C=C/c2ccc(Cl)cc2Cl)ccc1OCCOC` [Example 24]: the melting point was in the range of 76 to 78 °C.
Same read-out and setting: the value for `CNC(=S)NS(=O)(=O)c1cc(CCNC(=O)/C=C/c2cc(C(C)(C)C)ccc2OC)ccc1OCCOC` [Example 25, 1-(5-(2-(5-tert-Butyl-2-methoxycinnamoylamino)ethyl)-2-(2-methoxyethoxy)phenyl-sulfonyl)-3-methylthiourea] was 73 °C; that for `CNC(=S)NS(=O)(=O)c1cc(CCNC(=O)/C=C/c2ccc(C)cc2C)ccc1OCCOC` [Example 26, 1-(5-(2-(2,4-Dimethylcinnamoylamino)ethyl)-2-(2-methoxyethoxy)phenylsufonyl)-3-methylthiourea] was 116 °C.
For the compound `CC1(C)Oc2ccc(S(=O)(=O)c3ccccc3)cc2[C@@H](N2CCCC2=O)[C@@H]1O` [HOE 234, Rilmakalim, reference compound], the “APD90 + HOE 234, 30 min” value in series [2] (potassium channel opener rilmakalim (HOE 234) 1 μg/ml alone, 30 min, before test substance, 37° C., 1 Hz) was 24 milliseconds and 34 milliseconds.
